According to patent US20210275577A1, “MOLECULAR HYDROGEN-CONTAINING COMPOSITION FOR REGULATING INTRACELLULAR SIGNAL TRANSDUCTION” (MiZ Company Limited, priority 2020, published 2021):
Like-named read-outs stand apart in the source and are kept apart here.

Tests used:
[1] = test system: genes related to glycolysis and gluconeogenesis; inflammatory signal transduction pathways
Protocol: (§1) Cecal ligation and puncture (CLP) or sham surgery were performed on 9-week-old C57BL/6 male mice. Then, the CLP model mice were forced to inhale a 7% hydrogen gas. The inhalation time were two hours per day for one group and continuous 24 hours for the other group. The mice were housed in a chamber in which the concentration of a hydrogen gas could be maintained by a constant supply of a hydrogen gas from a gas generating apparatus (MHG-2000α manufactured by MiZ Company Limited), and forced to inhale the hydrogen gas therein. The mice in the control group were forced to inhale air not containing hydrogen. Mice were bred under a hydrogen gas atmosphere for one week, and the survival rate was evaluated. The serum inflammatory cytokine levels were evaluated using a Quantikine ELISA Kit (INFO) at 24 hours after CLP. The liver, the intestine, and the lung of mice were evaluated by RNA sequencing after inhalation of a hydrogen gas. Data were analyzed using Ingenuity Pathways Analysis (IPA: Qiagen Inc.). Additionally, expression of inflammatory genes in the intestine was investigated by RT-PCR.

[2] = CLP model mice, hydrogen gas treatment group; comparison value 74 mg/dL
Protocol: as §1

TNF-α = conditions: 24 hours after CLP
Protocol: as §1

IL-6 = conditions: 24 hours after CLP
Protocol: as §1

[3] = test system: cecal ligation and puncture (CLP) model mice
Protocol: as §1

[4] = after inhalation of a hydrogen gas
[5] = room temperature, normal pressure; cited from earlier work

Structure (SMILES): [HH] [hydrogen gas, molecular hydrogen]
- change in levels of genes vs control ([1]; hydrogen inhalation time two hours or longer per day): differences started to be observed
- inflammatory signal transduction pathways (acute phase response signaling, STAT pathway), z-scores ([1]; liver and intestine of the CLP model at 24 hours): inactive
- genes related to glycolysis and gluconeogenesis ([1]; liver, GO and pathway enrichment analysis): upregulation
- blood glucose level [2]: 127 mg/dL
- serum TNF-α level (TNF-α): attenuated
- serum IL-6 level (IL-6): attenuated
- survival rate ([3]; 7% hydrogen gas, continuous inhalation over 24 hours for 7 days, control 40%, p<0.05, n=20 vs. 20): 75%
- survival rate ([3]; continuous inhalation time increased to five hours, 12 hours, and 24 hours): improved
- survival rate vs control ([3]; continuous inhalation time per day one hour): no difference from control was observed
- survival rate vs control ([3]; continuous inhalation time two hours): differences started to be observed
- time for hydrogen to reach the liver [4]: ≥ 10 min
- time for hydrogen to reach the lung [4]: rapidly
- concentration dissolved in water (solubility) [5]: approximately 1.6 ppm
